Laboratory results as given in patent US20030156977A1, “Method for rapidly sterilizing a load” (priority 2000, published 2003).
Several values for one entry are separate records, joined by “and”; a condition that tells them apart may be missing. Equal entries are not always repeated. Where two headings read alike, the source gives them in different places.

Columns and labels:
[1] = tested on: Bacillus stearothermophilus spores
Procedure: The sterilization process was run under the following conditions:
The trays containing the inoculated coupons and the various loads were wrapped with sterilization wrap and sealed with sterilization tape.
The effectiveness of the sterilization process was determined by placing stainless steel coupons inoculated with >10^6 Bacillus stearothermophilus spores as biological indicators (BI's) into 3 mm×400 mm stainless steel lumens. The lumens were placed into double-wrapped sterilizer trays with the loads of medical instruments to be sterilized. At the end of the cycle, the BIs were recovered from the lumens, placed into tubes of TSB (Trypticase soy broth) medium and incubated at 55-60° C. for 14 days. The biological activity was then determined.
(§1) The pressure inside the chamber was also monitored as a function of time. After the completion of the sterilization cycle, the chamber was vented, the equipment was removed, and the inoculated coupons were tested for growth in the medium. […] The sterilization results and the summary of the various methods of analyzing the hydrogen concentration data are shown in Table 2 below.

[2] = for -Initial slope, k: 8.6 mg/L H2O2 injected, 6 trays, 20 min pre-plasma, first 50 seconds after maximum concentration
Procedure: as §1
The data were analyzed in various ways to determine whether a method could be found to quickly determine the suitability of the load for sterilization.
FIGS. 5-8 show graphs of ln(c/c0) versus time for a validation load (FIG. 5), a heavy load (FIG. 6), a heavy load with a new towel (FIG. 7), and a heavy load with an old towel (FIG. 8).
The initial slopes in Table 2 are recorded as the negative of the initial slopes for simplicity in recording the data.
The final concentration is measured at the end of the diffusion step 50, prior to evacuating and generating the post-injection plasma.

[3] = Group 7 validation loads with one towel
[4] = Group 8 validation loads with two towels

## OO [hydrogen peroxide]
[1]; Group 1: validation load, 8.6 or 9.3 mg/L H2O2 injected, 6 trays, 20 min pre-plasma
  Fraction Positive BIs: 0/10
[1]; Group 1 validation loads
  BI's of all runs of the group: negative
[1]; Group 2: heavy load, 1 filter, 8.6 mg/L H2O2 injected, 6 trays, 20 min pre-plasma
  Fraction Positive BIs: 0/10
[1]; Group 2: heavy load, 2 filters, 8.6 mg/L H2O2 injected, 6 trays, 20 min pre-plasma
  Fraction Positive BIs: 0/10
[1]; Group 2: heavy load, brass, 8.6 mg/L H2O2 injected, 6 trays, 20 min pre-plasma
  Fraction Positive BIs: 0/10
[1]; Group 2: heavy load, mat, 8.6 mg/L H2O2 injected, 6 trays, 20 min pre-plasma
  Fraction Positive BIs: 0/10
[1]; Group 2: heavy load, 8.6 mg/L H2O2 injected, 6 trays, 20 min pre-plasma
  Fraction Positive BIs: 1/10
[1]; Group 2 heavy loads
  Positive BI's, total of all runs of the group: 1 of the 60
[1]; Group 3: heavy load, 1 new towel, 8.6 mg/L H2O2 injected, 6 trays, 20 min pre-plasma
  Fraction Positive BIs: 6/10
[1]; Group 3: heavy load, 2 new towels, 8.6 mg/L H2O2 injected, 6 trays, 20 min pre-plasma
  Fraction Positive BIs: 5/10
[1]; Group 3: heavy load, 6/8 towel, 8.6 mg/L H2O2 injected, 6 trays, 20 min pre-plasma
  Fraction Positive BIs: 3/10
[1]; Group 3 heavy load/new towel runs
  Positive BI's, total of all runs of the group: 14/30
[1]; Group 4: heavy load, 1 old towel, 8.6 mg/L H2O2 injected, 6 trays, 20 min pre-plasma
  Fraction Positive BIs: 10/10
[1]; Group 4 heavy load/old towel runs
  Positive BI's, total of all runs of the group: 20 of the 20
[1]; Group 5: validation load, initial load temperature 5° C., 9.3 mg/L H2O2 injected, 4 trays, 15 min pre-plasma
  Fraction Positive BIs: 0/12
[1]; Group 5 cold validation loads, 15 minutes of pre-plasma, 72 BI's
  BI's of all runs of the group: negative
[1]; Group 6: validation load, initial load temperature 5° C., 9.3 mg/L H2O2 injected, 4 trays, no pre-plasma
  Fraction Positive BIs: 0/12
[1]; Group 6 cold condensing validation loads, no pre-plasma
  BI's of all runs of the group: negative
[1]; [3]
  Positive BI's, total of all runs of the group: 4/72
[1]; [4]
  Positive BI's, total of all runs of the group: 3/73
[2]; Group 1 runs with the validation loads
  Initial slope, average: 0.00983 s⁻¹
[2]; Group 2: heavy load, 1 filter
  -Initial slope, k: 0.016 s⁻¹
[2]; Group 2: heavy load, 2 filters
  -Initial slope, k: 0.017 s⁻¹
[2]; Group 2: heavy load, brass
  -Initial slope, k: 0.012 s⁻¹
[2]; Group 2: heavy load, mat
  -Initial slope, k: 0.013 s⁻¹
[2]; Group 2: heavy load
  -Initial slope, k: 0.016 s⁻¹
[2]; Group 2 runs with the heavy loads
  Initial slope, average: 0.0145 s⁻¹
[2]; Group 2 runs with the heavy loads (all variants)
  Initial slopes, range over runs: 0.012 to 0.017 s⁻¹
[2]; Group 3: heavy load, 1 new towel
  -Initial slope, k: 0.026 s⁻¹
[2]; Group 3: heavy load, 2 new towels
  -Initial slope, k: 0.028 s⁻¹
[2]; Group 3: heavy load, 6/8 towel
  -Initial slope, k: 0.019 s⁻¹
[2]; Group 3 runs with the heavy loads and new towel
  Initial slope, average: 0.0243 s⁻¹
[2]; Group 3 runs with the heavy loads and new towel (all variants)
  Initial slopes, range over runs: 0.019 to 0.028 s⁻¹
[2]; Group 4: heavy load, 1 old towel
  -Initial slope, k: 0.039 s⁻¹ and 0.025 s⁻¹
[2]; Group 4 runs with the heavy loads and old towel
  Initial slope, average: 0.032 s⁻¹
[2]; Group 5 runs with the cold validation loads and 15 minutes of pre-plasma
  Initial slope, average: 0.0095 s⁻¹
[2]; Group 6 runs with the cold condensing validation loads with no pre-plasma
  Initial slope, average: 0.0164 s⁻¹
[2]; [3]
  Initial slope, average: 0.0195 s⁻¹
[2]; [4]
  Initial slope, average: 0.028 s⁻¹
[2]; cold, condensing load
  Initial slope by type of load: 0.016 s⁻¹
[2]; heavy load
  Initial slope by type of load: 0.015 s⁻¹
[2]; heavy load with towel
  Initial slope by type of load: > 0.020 s⁻¹
[2]; validation load
  Initial slope by type of load: 0.010 s⁻¹
